Test results reported in patent publication US7175990B2, “Method of determining endometrial receptivity” (The Regents of the University of California, priority 2002, dated 2007).

Tests used:
[1] = test system: hatched mouse blastocysts; assay: Binding of selectin ligand-coated beads to hatched mouse blastocysts under shear stress; type: cell-based; conditions: neoglycolipid-coated 4-μm polystyrene beads
[2] = test system: explants of the human chorionic villous tree (trophoblast L-selectin); assay: Binding of selectin ligand-coated beads to first-trimester villous explant cultures under shear stress; type: cell-based; conditions: neoglycolipid-coated beads; cytotrophoblast column remnants and syncytiotrophoblasts
Protocol: Neoglycolipids were prepared by reductive amination of dipalmitoyl phosphatidylacetaldehyde with the aminoethyl glycoside of either sLe^x or 6-sulfo sLe^x 30 and dissolved in methanol (1 μg/μl). Blue 4-μm polystyrene latex beads (Interfacial Dynamics Corporation) were washed three times with ethanol, then resuspended in this solvent (1.2×10^8 beads/200 μl). Twenty-five micrograms of glycolipid was added, and the mixture was evaporated under nitrogen. Coated beads were washed three times in 1% BSA/PBS, then incubated with 3% BSA/PBS (2 h, room temperature). The beads were resuspended in 1 ml of 1% BSA/culture medium. Control beads were coated with phosphatidyl choline or used without coating.
Forty-eight first-trimester villous explant cultures were established (4 from 12 placentas; 2 experiments). After 24 h, the culture medium was removed, and 200 μl of a suspension of 2.4×10^7 beads in medium was added. Six explants were incubated with either experimental or control beads. Six other explants were pre-incubated with DREG-56 (30 min), then washed three times with medium before adding 6-sulfo sLe^x-coated beads. The explants were placed inside an incubator on a platform shaker (1 h; 20 cycles/min). Afterwards, bead suspensions were aspirated and explants were fixed in 3.8% paraformaldehyde (1 h, room temperature), washed three times in PBS (4° C.), and examined with a stereomicroscope. […]

[3] = test system: L-selectin; conditions: compared with sLe^x; cited from earlier work

Row | binding of ligand-coated beads to hatched mouse blastocysts [1] | binding of ligand-coated beads to human villus explants / trophoblasts [2] | Compound | tightness of L-selectin binding, 6-sulfo sLe^x versus sLe^x [3]
1 | bound | bound | Siaα2→3Galβ1→4[Fucα1→3][SO3→6]GlcNAc [6-sulfo sLe^x] | more tightly
2 | bound | in fewer numbers | CC(=O)NC1C(O)CC(OC2C(O)C(CO)OC(OC3C(CO)OC(O)C(NC(C)=O)C3OC3OC(C)C(O)C(O)C3O)C2O)(C(=O)O)OC1C(O)C(O)CO (centres unmarked) [sLe^x, Siaα2→3Galβ1→4[Fucα1→3]GlcNAc] | –
